Data from ChEMBL document CHEMBL4393657, “Tetrazole hybrids and their antifungal activities” (2019).
Values after ≈ are worked out from the molar mass of the structure shown.

Columns and labels:
Assay type in all cases: functional
Cryptococcus neoformans = experiment: Antifungal activity against Cryptococcus neoformans LA314 assessed as reduction in fungal cell growth incubated for 48 hrs by broth microdilution method; conditions: LA314, 48 h
Nakaseomyces glabratus = experiment: Antifungal activity against Candida glabrata assessed as reduction in fungal cell growth incubated for 48 hrs by broth microdilution method
Candida parapsilosis = experiment: Antifungal activity against Candida parapsilosis ATCC 22019 assessed as reduction in fungal cell growth incubated for 48 hrs by broth microdilution method; conditions: Lodderomyces parapsilosis, ATCC 22019, 48 h
Pichia kudriavzevii = experiment: Antifungal activity against Candida krusei assessed as reduction in fungal cell growth incubated for 48 hrs by broth microdilution method
Candida albicans = experiment: Antifungal activity against Candida albicans assessed as reduction in fungal cell growth incubated for 48 hrs by broth microdilution method
Candida tropicalis = experiment: Antifungal activity against Candida tropicalis assessed as reduction in fungal cell growth incubated for 48 hrs by broth microdilution method
Aspergillus niger = experiment: Antifungal activity against Aspergillus niger assessed as reduction in fungal cell growth incubated for 72 hrs by broth microdilution method

| MIC (Cryptococcus neoformans) [µg/mL] | MIC (Nakaseomyces glabratus) [µg/mL] | MIC (Candida parapsilosis) [µg/mL] | MIC (Pichia kudriavzevii) [µg/mL] | MIC (Candida albicans) [µg/mL] | MIC (Candida tropicalis) [µg/mL] | MIC (Aspergillus niger) [µg/mL] | Structure (SMILES) |
| --- | --- | --- | --- | --- | --- | --- | --- |
| 0.5 to 16 (≈ 0.854 to 27.3 µM) | 0.5 to 16 (≈ 0.854 to 27.3 µM) | 0.5 to 16 (≈ 0.854 to 27.3 µM) | 0.5 to 16 (≈ 0.854 to 27.3 µM) | 0.5 to 16 (≈ 0.854 to 27.3 µM) | 0.5 to 16 (≈ 0.854 to 27.3 µM) | 0.5 to 16 (≈ 0.854 to 27.3 µM) | OC(Cn1cncn1)(Cn1nnnc1CCN1CCN(c2ccc(Cc3ccccc3)cc2)CC1)c1ccc(F)cc1F (stereo not given) |
| 1 to 16 (≈ 1.8 to 28.9 µM) | 1 to 16 (≈ 1.8 to 28.9 µM) | 1 to 16 (≈ 1.8 to 28.9 µM) | 1 to 16 (≈ 1.8 to 28.9 µM) | 1 to 16 (≈ 1.8 to 28.9 µM) | 1 to 16 (≈ 1.8 to 28.9 µM) | 1 to 16 (≈ 1.8 to 28.9 µM) | CC(n1nnc(CCN2CCN(c3ccc([N+](=O)[O-])cc3)CC2)n1)C(O)(Cn1cncn1)c1ccc(F)cc1F (stereo not given) |
| 0.5 to 16 (≈ 0.981 to 31.4 µM) | 0.5 to 16 (≈ 0.981 to 31.4 µM) | 0.5 to 16 (≈ 0.981 to 31.4 µM) | 0.5 to 16 (≈ 0.981 to 31.4 µM) | 0.5 to 16 (≈ 0.981 to 31.4 µM) | 0.5 to 16 (≈ 0.981 to 31.4 µM) | 0.5 to 16 (≈ 0.981 to 31.4 µM) | CC(n1nnnc1CCN1CCN(c2ccccc2)CC1)C(O)(Cn1cncn1)c1ccc(F)cc1F (stereo not given) |
| 0.5 to 16 (≈ 0.927 to 29.7 µM) | 0.5 to 16 (≈ 0.927 to 29.7 µM) | 0.5 to 16 (≈ 0.927 to 29.7 µM) | 0.5 to 16 (≈ 0.927 to 29.7 µM) | 0.5 to 16 (≈ 0.927 to 29.7 µM) | 0.5 to 16 (≈ 0.927 to 29.7 µM) | 0.5 to 16 (≈ 0.927 to 29.7 µM) | COc1ccc(N2CCN(CCc3nnnn3C(C)C(O)(Cn3cncn3)c3ccc(F)cc3F)CC2)cc1 (stereo not given) |
| 0.5 to 16 (≈ 0.854 to 27.3 µM) | 0.5 to 16 (≈ 0.854 to 27.3 µM) | 0.5 to 16 (≈ 0.854 to 27.3 µM) | 0.5 to 16 (≈ 0.854 to 27.3 µM) | 0.5 to 16 (≈ 0.854 to 27.3 µM) | 0.5 to 16 (≈ 0.854 to 27.3 µM) | 0.5 to 16 (≈ 0.854 to 27.3 µM) | OC(Cn1cncn1)(Cn1nnnc1CCN1CCN(C(c2ccccc2)c2ccccc2)CC1)c1ccc(F)cc1F (stereo not given) |
| 0.5 to 16 (≈ 0.902 to 28.9 µM) | 0.5 to 16 (≈ 0.902 to 28.9 µM) | 0.5 to 16 (≈ 0.902 to 28.9 µM) | 0.5 to 16 (≈ 0.902 to 28.9 µM) | 0.5 to 16 (≈ 0.902 to 28.9 µM) | 0.5 to 16 (≈ 0.902 to 28.9 µM) | 0.5 to 16 (≈ 0.902 to 28.9 µM) | CC(n1nnnc1CCN1CCN(c2ccc([N+](=O)[O-])cc2)CC1)C(O)(Cn1cncn1)c1ccc(F)cc1F (stereo not given) |
| 0.25 to 16 (≈ 0.463 to 29.7 µM) | 0.25 to 16 (≈ 0.463 to 29.7 µM) | 0.25 to 16 (≈ 0.463 to 29.7 µM) | 0.25 to 16 (≈ 0.463 to 29.7 µM) | 0.25 to 16 (≈ 0.463 to 29.7 µM) | 0.25 to 16 (≈ 0.463 to 29.7 µM) | 0.25 to 16 (≈ 0.463 to 29.7 µM) | COc1ccccc1N1CCN(CCc2nnn([C@@H](C)[C@](O)(Cn3cncn3)c3ccc(F)cc3F)n2)CC1 |
| 0.5 to 16 (≈ 0.886 to 28.3 µM) | 0.5 to 16 (≈ 0.886 to 28.3 µM) | 0.5 to 16 (≈ 0.886 to 28.3 µM) | 0.5 to 16 (≈ 0.886 to 28.3 µM) | 0.5 to 16 (≈ 0.886 to 28.3 µM) | 0.5 to 16 (≈ 0.886 to 28.3 µM) | 0.5 to 16 (≈ 0.886 to 28.3 µM) | OC(Cn1cncn1)(Cn1nnnc1CCN1CCN(c2c(Cl)cccc2Cl)CC1)c1ccc(F)cc1F (stereo not given) |
| 0.5 to 16 (≈ 0.866 to 27.7 µM) | 0.5 to 16 (≈ 0.866 to 27.7 µM) | 0.5 to 16 (≈ 0.866 to 27.7 µM) | 0.5 to 16 (≈ 0.866 to 27.7 µM) | 0.5 to 16 (≈ 0.866 to 27.7 µM) | 0.5 to 16 (≈ 0.866 to 27.7 µM) | 0.5 to 16 (≈ 0.866 to 27.7 µM) | CC(n1nnnc1CCN1CCN(c2cccc(C(F)(F)F)c2)CC1)C(O)(Cn1cncn1)c1ccc(F)cc1F (stereo not given) |
| 0.12 to 16 (≈ 0.207 to 27.7 µM) | 0.12 to 16 (≈ 0.207 to 27.7 µM) | 0.12 to 16 (≈ 0.207 to 27.7 µM) | 0.12 to 16 (≈ 0.207 to 27.7 µM) | 0.12 to 16 (≈ 0.207 to 27.7 µM) | 0.12 to 16 (≈ 0.207 to 27.7 µM) | 0.12 to 16 (≈ 0.207 to 27.7 µM) | C[C@H](n1nnnc1CCN1CCN(c2c(Cl)cccc2Cl)CC1)[C@](O)(Cn1cncn1)c1ccc(F)cc1F |
| 0.12 to 16 (≈ 0.221 to 29.4 µM) | 0.12 to 16 (≈ 0.221 to 29.4 µM) | 0.12 to 16 (≈ 0.221 to 29.4 µM) | 0.12 to 16 (≈ 0.221 to 29.4 µM) | 0.12 to 16 (≈ 0.221 to 29.4 µM) | 0.12 to 16 (≈ 0.221 to 29.4 µM) | 0.12 to 16 (≈ 0.221 to 29.4 µM) | C[C@H](n1nnnc1CCN1CCN(c2ccc(Cl)cc2)CC1)[C@](O)(Cn1cncn1)c1ccc(F)cc1F |
| 0.5 to 16 (≈ 0.951 to 30.4 µM) | 0.5 to 16 (≈ 0.951 to 30.4 µM) | 0.5 to 16 (≈ 0.951 to 30.4 µM) | 0.5 to 16 (≈ 0.951 to 30.4 µM) | 0.5 to 16 (≈ 0.951 to 30.4 µM) | 0.5 to 16 (≈ 0.951 to 30.4 µM) | 0.5 to 16 (≈ 0.951 to 30.4 µM) | COc1ccc(N2CCN(CCc3nnnn3CC(O)(Cn3cncn3)c3ccc(F)cc3F)CC2)cc1 (stereo not given) |
| 1 to 16 (≈ 1.96 to 31.4 µM) | 1 to 16 (≈ 1.96 to 31.4 µM) | 1 to 16 (≈ 1.96 to 31.4 µM) | 1 to 16 (≈ 1.96 to 31.4 µM) | 1 to 16 (≈ 1.96 to 31.4 µM) | 1 to 16 (≈ 1.96 to 31.4 µM) | 1 to 16 (≈ 1.96 to 31.4 µM) | OC(Cn1cncn1)(Cn1nnc(CCN2CCN(Cc3ccccc3)CC2)n1)c1ccc(F)cc1F (stereo not given) |
| 0.12 to 16 (≈ 0.235 to 31.4 µM) | 0.12 to 16 (≈ 0.235 to 31.4 µM) | 0.12 to 16 (≈ 0.235 to 31.4 µM) | 0.12 to 16 (≈ 0.235 to 31.4 µM) | 0.12 to 16 (≈ 0.235 to 31.4 µM) | 0.12 to 16 (≈ 0.235 to 31.4 µM) | 0.12 to 16 (≈ 0.235 to 31.4 µM) | C[C@H](n1nnnc1CCN1CCN(c2ccccc2)CC1)[C@](O)(Cn1cncn1)c1ccc(F)cc1F |
| 0.5 to 16 (≈ 0.919 to 29.4 µM) | 0.5 to 16 (≈ 0.919 to 29.4 µM) | 0.5 to 16 (≈ 0.919 to 29.4 µM) | 0.5 to 16 (≈ 0.919 to 29.4 µM) | 0.5 to 16 (≈ 0.919 to 29.4 µM) | 0.5 to 16 (≈ 0.919 to 29.4 µM) | 0.5 to 16 (≈ 0.919 to 29.4 µM) | CC(n1nnnc1CCN1CCN(c2ccccc2Cl)CC1)C(O)(Cn1cncn1)c1ccc(F)cc1F (stereo not given) |
| 1 to 16 (≈ 1.84 to 29.4 µM) | 1 to 16 (≈ 1.84 to 29.4 µM) | 1 to 16 (≈ 1.84 to 29.4 µM) | 1 to 16 (≈ 1.84 to 29.4 µM) | 1 to 16 (≈ 1.84 to 29.4 µM) | 1 to 16 (≈ 1.84 to 29.4 µM) | 1 to 16 (≈ 1.84 to 29.4 µM) | CC(n1nnc(CCN2CCN(c3ccccc3Cl)CC2)n1)C(O)(Cn1cncn1)c1ccc(F)cc1F (stereo not given) |
| 0.12 to 16 (≈ 0.222 to 29.7 µM) | 0.12 to 16 (≈ 0.222 to 29.7 µM) | 0.12 to 16 (≈ 0.222 to 29.7 µM) | 0.12 to 16 (≈ 0.222 to 29.7 µM) | 0.12 to 16 (≈ 0.222 to 29.7 µM) | 0.12 to 16 (≈ 0.222 to 29.7 µM) | 0.12 to 16 (≈ 0.222 to 29.7 µM) | COc1ccc(N2CCN(CCc3nnnn3[C@@H](C)[C@](O)(Cn3cncn3)c3ccc(F)cc3F)CC2)cc1 |
| 0.25 to 16 (≈ 0.433 to 27.7 µM) | 0.25 to 16 (≈ 0.433 to 27.7 µM) | 0.25 to 16 (≈ 0.433 to 27.7 µM) | 0.25 to 16 (≈ 0.433 to 27.7 µM) | 0.25 to 16 (≈ 0.433 to 27.7 µM) | 0.25 to 16 (≈ 0.433 to 27.7 µM) | 0.25 to 16 (≈ 0.433 to 27.7 µM) | C[C@H](n1nnc(CCN2CCN(c3cccc(C(F)(F)F)c3)CC2)n1)[C@](O)(Cn1cncn1)c1ccc(F)cc1F |
| 0.12 to 16 (≈ 0.229 to 30.6 µM) | 0.12 to 16 (≈ 0.229 to 30.6 µM) | 0.12 to 16 (≈ 0.229 to 30.6 µM) | 0.12 to 16 (≈ 0.229 to 30.6 µM) | 0.12 to 16 (≈ 0.229 to 30.6 µM) | 0.12 to 16 (≈ 0.229 to 30.6 µM) | 0.12 to 16 (≈ 0.229 to 30.6 µM) | C[C@H](n1nnnc1CCN1CCN(Cc2ccccc2)CC1)[C@](O)(Cn1cncn1)c1ccc(F)cc1F |
| 1 to 16 (≈ 1.84 to 29.4 µM) | 1 to 16 (≈ 1.84 to 29.4 µM) | 1 to 16 (≈ 1.84 to 29.4 µM) | 1 to 16 (≈ 1.84 to 29.4 µM) | 1 to 16 (≈ 1.84 to 29.4 µM) | 1 to 16 (≈ 1.84 to 29.4 µM) | 1 to 16 (≈ 1.84 to 29.4 µM) | CC(n1nnc(CCN2CCN(c3ccc(Cl)cc3)CC2)n1)C(O)(Cn1cncn1)c1ccc(F)cc1F (stereo not given) |
